# Assay results as given in patent US9926281B2 (priority 2014, dated 2018).
# Read-outs that look alike come from different tables or passages of the source.
# How the values were obtained:
# human MMP13 = human MMP13 (Homo sapiens (Human), UniProt P45452); conditions: read-out: hMMP-13 potency IC50
# Method: Human MMP13 is preactivated by incubated the enzyme in the same buffer complemented with 1 mM freshly prepared p-Aminophenylmercuric acetate (AMPA) for 1 hour at 37° C.
# human ADAMTS-5 [1] = target: T1, human ADAMTS-5 (Homo sapiens (Human), UniProt Q9UNA0); conditions: read-out: hADAMTS-5 potency IC50
# rnADAMTS-5 (1-564-6H) = rnADAMTS-5 (1-564-6H) (Rattus norvegicus, UniProt Q6TY19); conditions: read-out: Rat ADAMTS-5 potency IC50
# human TACE = human TACE (Homo sapiens (Human), UniProt P78536); conditions: read-out: TACE potency IC50
# human ADAMTS-5 [2] = target: T1, human ADAMTS-5; conditions: read-out: hADAMTS-5 potency IC50; remark: listed apart in the source
# Method: Finally, the fluorescence is read on the Envision (Perkin Elmer) after an incubation of 90 min at 37° C.
# Chain of human TACE (P78536 whole entry, looked up, change not shown): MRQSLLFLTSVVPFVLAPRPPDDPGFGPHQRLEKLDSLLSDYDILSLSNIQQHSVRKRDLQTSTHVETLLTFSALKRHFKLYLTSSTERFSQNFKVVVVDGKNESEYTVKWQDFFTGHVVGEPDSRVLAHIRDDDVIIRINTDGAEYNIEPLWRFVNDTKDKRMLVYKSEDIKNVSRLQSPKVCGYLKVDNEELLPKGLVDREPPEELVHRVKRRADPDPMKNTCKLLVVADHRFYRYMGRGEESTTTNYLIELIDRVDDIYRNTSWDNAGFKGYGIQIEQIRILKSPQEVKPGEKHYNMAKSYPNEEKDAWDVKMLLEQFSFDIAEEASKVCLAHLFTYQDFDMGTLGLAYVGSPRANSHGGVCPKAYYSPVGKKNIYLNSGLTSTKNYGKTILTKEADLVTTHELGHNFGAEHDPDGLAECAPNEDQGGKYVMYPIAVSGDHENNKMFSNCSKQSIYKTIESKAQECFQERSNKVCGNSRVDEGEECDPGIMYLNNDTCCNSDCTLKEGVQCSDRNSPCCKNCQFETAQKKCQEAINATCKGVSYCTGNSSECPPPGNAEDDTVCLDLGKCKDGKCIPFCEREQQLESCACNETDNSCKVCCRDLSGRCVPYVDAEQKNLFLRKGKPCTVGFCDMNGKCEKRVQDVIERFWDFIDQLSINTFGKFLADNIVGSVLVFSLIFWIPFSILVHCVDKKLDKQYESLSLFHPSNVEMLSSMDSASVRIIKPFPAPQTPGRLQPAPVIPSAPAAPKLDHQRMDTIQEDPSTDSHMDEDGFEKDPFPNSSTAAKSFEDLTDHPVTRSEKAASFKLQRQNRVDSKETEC
# T1 sequence (Q9UNA0 262-930): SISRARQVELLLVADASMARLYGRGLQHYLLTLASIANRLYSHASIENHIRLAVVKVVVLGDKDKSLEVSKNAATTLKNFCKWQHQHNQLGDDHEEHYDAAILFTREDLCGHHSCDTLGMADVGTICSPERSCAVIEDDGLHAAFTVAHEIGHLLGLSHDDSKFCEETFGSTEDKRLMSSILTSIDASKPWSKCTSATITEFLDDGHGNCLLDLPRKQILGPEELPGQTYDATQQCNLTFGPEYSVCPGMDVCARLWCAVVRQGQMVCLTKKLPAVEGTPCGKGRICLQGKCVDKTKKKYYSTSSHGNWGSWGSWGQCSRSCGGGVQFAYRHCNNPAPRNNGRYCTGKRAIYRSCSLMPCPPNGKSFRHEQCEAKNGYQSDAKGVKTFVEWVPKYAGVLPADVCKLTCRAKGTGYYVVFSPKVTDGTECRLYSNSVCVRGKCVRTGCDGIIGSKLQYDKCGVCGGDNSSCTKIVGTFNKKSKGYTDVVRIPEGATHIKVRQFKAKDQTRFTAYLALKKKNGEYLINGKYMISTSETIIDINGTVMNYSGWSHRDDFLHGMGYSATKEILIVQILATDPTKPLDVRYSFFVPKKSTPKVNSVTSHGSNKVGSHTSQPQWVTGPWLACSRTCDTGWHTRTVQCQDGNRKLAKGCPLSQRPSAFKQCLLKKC
Compound,IC50 (human MMP13),IC50 (human ADAMTS-5 [1]),IC50 (rnADAMTS-5 (1-564-6H)),IC50 (human TACE),IC50 (human ADAMTS-5 [2])
"O=C1NC(=O)C(CCC(=O)N2CCN(c3ccc(F)c(F)c3)CC2)(c2cccnc2)N1 (stereo not drawn) [compound 90, 5-[3-[4-(3,4-difluorophenyl)piperazin-1-yl]-3-oxo-propyl]-5-(3-pyridyl)imidazolidine-2,4-dione]",1210 nM,85 nM,70 nM,> 4000 nM,–
"Cc1ccc(Cl)cc1N1CCN(C(=O)CCC2(c3ccccn3)NC(=O)NC2=O)CC1 (stereo not drawn) [compound 65, 5-[3-[4-(5-chloro-2-methyl-phenyl)piperazin-1-yl]-3-oxo-propyl]-5-(2-pyridyl)imidazolidine-2,4-dione]",> 20000 nM,50 nM,65 nM,56 nM,–
"Cc1ccc(Cl)cc1N1CCN(C(=O)CCC2(C(C)(C)C)NC(=O)NC2=O)CC1 (stereo not drawn) [compound 108, 5-tert-butyl-5-[3-[4-(5-chloro-2-methyl-phenyl)piperazin-1-yl]-3-oxo-propyl]imidazolidine-2,4-dione]",–,320 nM,410 nM,–,–
"Cc1cccc(C)c1N1CCN(C(=O)CCC2(c3ccccc3)NC(=O)NC2=O)CC1 (stereo not drawn) [compound 22, 5-[3-[4-(2,6-dimethylphenyl)piperazin-1-yl]-3-oxo-propyl]-5-phenyl-imidazolidine-2,4-dione]",–,> 3790 nM,3900 nM,–,–
"CC1(CCC(=O)N2CCN(c3cncc(F)c3)CC2)NC(=O)NC1=O (stereo not drawn) [compound 84, 5-[3-[4-(5-fluoro-3-pyridyl)piperazin-1-yl]-3-oxo-propyl]-5-methyl-imidazolidine-2,4-dione]",–,815 nM,637 nM,–,–
"CC1(CCC(=O)N2CCN(c3ccc(Cl)c(F)c3)CC2)NC(=O)NC1=O (stereo not drawn) [compound 49, 5-[3-[4-(4-chloro-3-fluoro-phenyl)piperazin-1-yl]-3-oxo-propyl]-5-methyl-imidazolidine-2,4-dione]",–,127 nM,141 nM,> 20000 nM,–
"Cc1ccc(Cl)cc1N1CCN(C(=O)CCC2(C(C)C)NC(=O)NC2=O)CC1 (stereo not drawn) [compound 33, 5-[3-[4-(5-chloro-2-methyl-phenyl)piperazin-1-yl]-3-oxo-propyl]-5-isopropyl-imidazolidine-2,4-dione]",–,134 nM,178 nM,429 nM,–
"Cc1cccc(N2CCN(C(=O)CCC3(c4cccnc4)NC(=O)NC3=O)CC2)c1C (stereo not drawn) [compound 69, 5-[3-[4-(2,3-dimethylphenyl)piperazin-1-yl]-3-oxo-propyl]-5-(3-pyridyl)imidazolidine-2,4-dione]",–,178 nM,185 nM,–,–
"Cc1ccccc1N1CCN(C(=O)CCC2(c3ccc(OCCN(C)C)cc3)NC(=O)NC2=O)CC1 (stereo not drawn) [compound 81, 5-[4-(2-dimethylaminoethyloxy)phenyl]-5-[3-[4-(o-toyl)piperazin-1-yl]-3-oxo-propyl]imidazolidine-2,4-dione]",–,681 nM,827 nM,–,–
"O=C1NC(=O)C(CCC(=O)N2CCN(c3cccc(Cl)c3)CC2)(c2cccnc2)N1 (stereo not drawn) [compound 56, 5-[3-[4-(3-chlorophenyl)piperazin-1-yl]-3-oxo-propyl]-5-(3-pyridyl)imidazolidine-2,4-dione]",–,38 nM,72 nM,3190 nM,–
"CC1(CCC(=O)N2CCN(c3ccccc3Cl)CC2)NC(=O)NC1=O (stereo not drawn) [compound 19, 5-[3-[4-(2-chlorophenyl)piperazin-1-yl]-3-oxo-propyl]-5-methyl-imidazolidine-2,4-dione]",–,> 4000 nM,> 4000 nM,–,> 4000 nM
"Cc1ccc(Cl)cc1N1CCN(C(=O)CCC2(C3CCC3)NC(=O)NC2=O)CC1 (stereo not drawn) [compound 71, 5-[3-[4-(5-chloro-2-methyl-phenyl)piperazin-1-yl]-3-oxo-propyl]-5-cyclobutyl-imidazolidine-2,4-dione]",–,200 nM,198 nM,–,–
"O=C1NC(=O)C(CCC(=O)N2CCN(c3ccc4ccccc4n3)CC2)(c2ccccc2)N1 (stereo not drawn) [compound 15, 5-[3-oxo-3-[4-(2-quinolyl)piperazin-1-yl]propyl]-5-phenyl-imidazolidine-2,4-dione]",–,> 4000 nM,> 4000 nM,–,–
"N#Cc1ccc(C2(CCC(=O)N3CCN(c4cccc(Cl)c4)CC3)NC(=O)NC2=O)cc1 (stereo not drawn) [compound 125, 4-[4-[3-[4-(3-chlorophenyl)piperazin-1-yl]-3-oxo-propyl]-2,5-dioxo-imidazolidin-4-yl]benzonitrile]",2120 nM,53 nM,–,1800 nM,–
"O=C1NC(=O)C(CCC(=O)N2CCN(c3cccc(Cl)c3)CC2)(c2ccc(Cl)cc2)N1 (stereo not drawn) [compound 74, 5-(4-chlorophenyl)-5-[3-[4-(3-chlorophenyl)piperazin-1-yl]-3-oxo-propyl]imidazolidine-2,4-dione]",2660 nM,89 nM,106 nM,–,–
"O=C1NC(=O)C(CCC(=O)N2CCN(c3ccc(Cl)cc3)CC2)(c2ccccc2)N1 (stereo not drawn) [compound 5, 5-[3-[4-(4-chlorophenyl)piperazin-1-yl]-3-oxo-propyl]-5-phenyl-imidazolidine-2,4-dione]",–,78 nM,101 nM,> 3330 nM,–

Compound,IC50 (human MMP13),IC50 (human ADAMTS-5 [1]),IC50 (rnADAMTS-5 (1-564-6H)),IC50 (human TACE),IC50 (human ADAMTS-5 [2])
"Cc1ccc(Cl)cc1N1CCN(C(=O)CCC2(c3ccccc3)NC(=O)NC2=O)CC1 (stereo not drawn) [compound 24, 5-[3-[4-(5-chloro-2-methyl-phenyl)piperazin-1-yl]-3-oxo-propyl]-5-phenyl-imidazolidine-2,4-dione]",–,93 nM,132 nM,298 nM,–
"CC1(CCC(=O)N2CCN(c3ccc(Cl)c(Cl)c3)CC2)NC(=O)NC1=O (stereo not drawn) [compound 67, 5-[3-[4-(3,4-dichlorophenyl)piperazin-1-yl]-3-oxo-propyl]-5-methyl-imidazolidine-2,4-dione]",> 3500 nM,152 nM,–,> 4000 nM,–
"Cc1ccc(Cl)cc1N1CCN(C(=O)CCC2(C3CCCC3)NC(=O)NC2=O)CC1 (stereo not drawn) [compound 110, 5-[3-[4-(5-chloro-2-methyl-phenyl)piperazin-1-yl]-3-oxo-propyl]-5-cyclopentyl-imidazolidine-2,4-dione]",–,297 nM,299 nM,–,–
"O=C1NC(=O)C(CCC(=O)N2CCN(c3ccccc3)CC2)(c2cccnc2)N1 (stereo not drawn) [compound 68, 5-[3-oxo-3-(4-phenylpiperazin-1-yl)propyl]-5-(3-pyridyl)imidazolidine-2,4-dione]",–,169 nM,200 nM,–,–
"Cc1ccc(Cl)cc1N1CCN(C(=O)CCC2(c3cccnc3)NC(=O)NC2=O)CC1 (stereo not drawn) [compound 46, 5-[3-[4-(5-chloro-2-methyl-phenyl)piperazin-1-yl]-3-oxo-propyl]-5-(3-pyridyl)imidazolidine-2,4-dione]",–,35 nM,42 nM,137 nM,–
"Cc1cc(N2CCN(C(=O)CCC3(c4ccccc4)NC(=O)NC3=O)CC2)ccc1[N+](=O)[O-] (stereo not drawn) [compound 23, 5-[3-[4-(3-methyl-4-nitro-phenyl)piperazin-1-yl]-3-oxo-propyl]-5-phenyl-imidazolidine-2,4-dione]",–,157 nM,158 nM,–,–
"Cc1c(Cl)cc(Cl)cc1N1CCN(C(=O)CCC2(C)NC(=O)NC2=O)CC1 (stereo not drawn) [compound 139, 5-[3-[4-(3,5-dichloro-2-methyl-phenyl)piperazin-1-yl]-3-oxo-propyl]-5-methyl-imidazolidine-2,4-dione]",> 20000 nM,231 nM,–,1320 nM,–
"Cc1ccc(C2(CCC(=O)N3CCN(c4cc(Cl)ccc4C)CC3)NC(=O)NC2=O)cc1 (stereo not drawn) [compound 77, 5-[3-[4-(5-chloro-2-methyl-phenyl)piperazin-1-yl]-3-oxo-propyl]-5-(p-tolyl)imidazolidine-2,4-dione]",–,107 nM,169 nM,–,–
"Cc1ccccc1N1CCN(C(=O)CCC2(c3ccc(CN(C)C)cc3)NC(=O)NC2=O)CC1 (stereo not drawn) [compound 82, 5-[4-(dimethylaminomethyl)phenyl]-5-[3-[4-(o-toly)piperazin-1-yl]-3-oxo-propyl]imidazolidine-2,4-dione]",–,1740 nM,2090 nM,–,–
"Cc1cccc(N2CCN(C(=O)CCC3(C4CC4)NC(=O)NC3=O)CC2)c1C (stereo not drawn) [compound 57, 5-cyclopropyl-5-[3-[4-(2,3-dimethylphenyl)piperazin-1-yl]-3-oxo-propyl]imidazolidine-2,4-dione]",–,93 nM,117 nM,> 12000 nM,–
"Cc1cccc(N2CCN(C(=O)CCC3(c4ccccn4)NC(=O)NC3=O)CC2)c1C (stereo not drawn) [compound 101, 5-[3-[4-(2,3-dimethylphenyl)piperazin-1-yl]-3-oxo-propyl]-5-(2-pyridyl)imidazolidine-2,4-dione]",–,154 nM,165 nM,–,–
"C[C@@H]1CN(C(=O)CCC2(c3cccnc3)NC(=O)NC2=O)CCN1c1ccccc1 (stereo partly drawn) [compound 134, 5-[3-[(3R)-3-methyl-4-phenyl-piperazin-1-yl]-3-oxo-propyl]-5-(3-pyridyl)imidazolidine-2,4-dione]",> 20000 nM,1870 nM,–,> 20000 nM,–
"COc1ccc(Cl)cc1C1(CCC(=O)N2CCN(c3cc(Cl)ccc3C)CC2)NC(=O)NC1=O (stereo not drawn) [compound 133, 5-(5-chloro-2-methoxy-phenyl)-5-[3-[4-(5-chloro-2-methyl-phenyl)piperazin-1-yl]-3-oxo-propyl]imidazolidine-2,4-dione]",> 20000 nM,108 nM,–,195 nM,–
"COc1cccc(C2(CCC(=O)N3CCN(c4cccc(Cl)c4)CC3)NC(=O)NC2=O)c1 (stereo not drawn) [compound 123, 5-[3-[4-(3-chlorophenyl)piperazin-1-yl]-3-oxo-propyl]-5-(3-methoxyphenyl)imidazolidine-2,4-dione]",919 nM,95 nM,–,1640 nM,–
"O=C1NC(=O)C(CCC(=O)N2CCN(c3cccc(Cl)c3)CC2)(C2CCCCC2)N1 (stereo not drawn) [compound 72, 5-[3-[4-(3-chlorophenyl)piperazin-1-yl]-3-oxo-propyl]-5-cyclohexyl-imidazolidine-2,4-dione]",–,264 nM,282 nM,–,–
